Reference: paper PMC4450297, “Screening Active Compounds from Garcinia Species Native to China Reveals Novel Compounds Targeting the STAT/JAK Signaling Pathway” (BioMed Research International, 2015)

How the values were obtained:
Experiment in all cases: Cell panel screen (CellTiter-Glo)
Type in all cases: cell-based, human
A498 = A498 (listed under Lung), 20 micromolar, 72 hrs
In short: (§1)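 Single-dose 20 μM (final), 72 h exposure; DMSO vehicle controls. Luminescence after 10-min reagent incubation → % growth inhibition = (untreated − treated)/(untreated − no-cell background) × 100.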

A704 = A704 (Kidney), 20 micromolar, 72 hrs
In short: as §1

BT-474 = BT-474 (Breast), 20 micromolar, 72 hrs
In short: as §1

BT-549 = BT-549 (Breast), 20 micromolar, 72 hrs
In short: as §1

Bel-7402 = Bel-7402 (Liver), 20 micromolar, 72 hrs
In short: as §1

C3A = C3A (Liver), 20 micromolar, 72 hrs
In short: as §1

C8166 = C8166 (Leukemia), 20 micromolar, 72 hrs
In short: as §1

CCF-STTG1 = CCF-STTG1 (Brain), 20 micromolar, 72 hrs
In short: as §1

CW-2 = CW-2 (Colon), 20 micromolar, 72 hrs
In short: as §1

ChaGo-K-1 = ChaGo-K-1 (Lung), 20 micromolar, 72 hrs
In short: as §1

Colo 205 = conditions: Colo 205, 20 micromolar, 72 hrs
In short: as §1

HCC1395 = HCC1395 (Breast), 20 micromolar, 72 hrs
In short: as §1

HCC1569 = HCC1569 (Breast), 20 micromolar, 72 hrs
In short: as §1

HCC1599 = HCC1599 (Breast), 20 micromolar, 72 hrs
In short: as §1

HCC1937 = HCC1937 (Breast), 20 micromolar, 72 hrs
In short: as §1

HEC-1-A = HEC-1-A (Uterus), 20 micromolar, 72 hrs
In short: as §1

HGC-27 = HGC-27 (Stomach), 20 micromolar, 72 hrs
In short: as §1

HPAF-II = HPAF-II (Pancreas), 20 micromolar, 72 hrs
In short: as §1

HT-1197 = HT-1197 (Urinary bladder), 20 micromolar, 72 hrs
In short: as §1

J82 = J82 (Urinary bladder), 20 micromolar, 72 hrs
In short: as §1

M059J = M059J (Brain), 20 micromolar, 72 hrs
In short: as §1

MSTO-211-H = MSTO-211-H (Lung), 20 micromolar, 72 hrs
In short: as §1

NCI-H1623 = NCI-H1623 (Lung), 20 micromolar, 72 hrs
In short: as §1

NCI-H1694 = NCI-H1694 (Lung), 20 micromolar, 72 hrs
In short: as §1

NCI-H1770 = NCI-H1770 (Lung), 20 micromolar, 72 hrs
In short: as §1

NCI-H2347 = NCI-H2347 (Lung), 20 micromolar, 72 hrs
In short: as §1

NCI-H2405 = NCI-H2405 (Lung), 20 micromolar, 72 hrs
In short: as §1

NCI-H28 = NCI-H28 (Lung), 20 micromolar, 72 hrs
In short: as §1

NCI-H524 = NCI-H524 (Lung), 20 micromolar, 72 hrs
In short: as §1

Panc 03.27 = Panc 03.27 (Pancreas), 20 micromolar, 72 hrs
In short: as §1

RL95 = RL95 (Uterus), 20 micromolar, 72 hrs
In short: as §1

SW13 = SW13 (Adrenal gland), 20 micromolar, 72 hrs
In short: as §1

T47D = T47D (Breast), 20 micromolar, 72 hrs
In short: as §1

T98G = T98G (Brain), 20 micromolar, 72 hrs
In short: as §1

TCCSUP = TCCSUP (Urinary bladder), 20 micromolar, 72 hrs
In short: as §1

ZR-75-30 = ZR-75-30 (Breast), 20 micromolar, 72 hrs
In short: as §1

SMILES	Percent Inhibition (A498) [%]	Percent Inhibition (A704) [%]	Percent Inhibition (BT-474) [%]	Percent Inhibition (BT-549) [%]	Percent Inhibition (Bel-7402) [%]	Percent Inhibition (C3A) [%]	Percent Inhibition (C8166) [%]	Percent Inhibition (CCF-STTG1) [%]	Percent Inhibition (CW-2) [%]	Percent Inhibition (ChaGo-K-1) [%]	Percent Inhibition (Colo 205) [%]	Percent Inhibition (HCC1395) [%]	Percent Inhibition (HCC1569) [%]	Percent Inhibition (HCC1599) [%]	Percent Inhibition (HCC1937) [%]	Percent Inhibition (HEC-1-A) [%]	Percent Inhibition (HGC-27) [%]	Percent Inhibition (HPAF-II) [%]	Percent Inhibition (HT-1197) [%]	Percent Inhibition (J82) [%]	other results
CC(C)=CCc1c2c(c(O)c3c1OC14C(=CC5CC1C(C)(C)OC4(CC=C(C)C(=O)O)C5=O)C3=O)C=CC(C)(C)O2 (stereo not drawn) [GB27]	88	98	98	98	97	98	99	99	99	98	99	99	99	99	99	99	98	98	95	98	Percent Inhibition (M059J): 99%; Percent Inhibition (MSTO-211-H): 99%; Percent Inhibition (NCI-H1623): 98%; Percent Inhibition (NCI-H1694): 99%; Percent Inhibition (NCI-H1770): 99%; Percent Inhibition (NCI-H2347): 93%; Percent Inhibition (NCI-H2405): 98%; Percent Inhibition (NCI-H28): 90%; Percent Inhibition (NCI-H524): 99%; Percent Inhibition (Panc 03.27): 97%; Percent Inhibition (RL95): 98%; Percent Inhibition (SW13): 99%; Percent Inhibition (T47D): 99%; Percent Inhibition (T98G): 99%; Percent Inhibition (TCCSUP): 99%; Percent Inhibition (ZR-75-30): 99%
COC(=O)C1OC(Oc2cc(O)c3c(=O)cc(-c4ccc(O)cc4)oc3c2)C(O)C(O)C1O (stereo not drawn) [WZ-6]	13	-9	-12	-16	1	-1	-15	-3	12	-16	4	21	-18	12	3	1	-8	-14	16	-5	Percent Inhibition (M059J): 2%; Percent Inhibition (MSTO-211-H): 6%; Percent Inhibition (NCI-H1623): -8%; Percent Inhibition (NCI-H1694): -9%; Percent Inhibition (NCI-H1770): -1%; Percent Inhibition (NCI-H2347): -3%; Percent Inhibition (NCI-H2405): -12%; Percent Inhibition (NCI-H28): 6%; Percent Inhibition (NCI-H524): -11%; Percent Inhibition (Panc 03.27): -4%; Percent Inhibition (RL95): -5%; Percent Inhibition (SW13): 1%; Percent Inhibition (T47D): 4%; Percent Inhibition (T98G): 4%; Percent Inhibition (TCCSUP): 8%; Percent Inhibition (ZR-75-30): -2%
CC1(C)C=Cc2cc3c(=O)c4c(O)cc(O)cc4oc3c(O)c2O1 [Go-11]	37	24	31	46	16	19	71	44	61	75	11	68	41	49	21	38	54	18	39	52	Percent Inhibition (M059J): 78%; Percent Inhibition (MSTO-211-H): 66%; Percent Inhibition (NCI-H1623): -10%; Percent Inhibition (NCI-H1694): 73%; Percent Inhibition (NCI-H1770): 38%; Percent Inhibition (NCI-H2347): 10%; Percent Inhibition (NCI-H2405): 3%; Percent Inhibition (NCI-H28): 33%; Percent Inhibition (NCI-H524): 83%; Percent Inhibition (Panc 03.27): 39%; Percent Inhibition (RL95): 72%; Percent Inhibition (SW13): 24%; Percent Inhibition (T47D): 35%; Percent Inhibition (T98G): 68%; Percent Inhibition (TCCSUP): 43%; Percent Inhibition (ZR-75-30): 62%
CC(C)=CCc1c(O)cc2oc3ccc(O)cc3c(=O)c2c1O [Ge-1]	54	34	30	20	19	32	9	43	62	44	29	55	52	54	11	26	54	28	50	38	Percent Inhibition (M059J): 24%; Percent Inhibition (MSTO-211-H): 44%; Percent Inhibition (NCI-H1623): 9%; Percent Inhibition (NCI-H1694): 49%; Percent Inhibition (NCI-H1770): 13%; Percent Inhibition (NCI-H2347): 32%; Percent Inhibition (NCI-H2405): 7%; Percent Inhibition (NCI-H28): 23%; Percent Inhibition (NCI-H524): 42%; Percent Inhibition (Panc 03.27): 43%; Percent Inhibition (RL95): 37%; Percent Inhibition (SW13): 57%; Percent Inhibition (T47D): 45%; Percent Inhibition (T98G): 46%; Percent Inhibition (TCCSUP): 28%; Percent Inhibition (ZR-75-30): 81%
O=C1CC(c2ccc(O)c(O)c2)Oc2cc(OC3OC(C(=O)O)C(O)C(O)C3O)cc(O)c21 (stereo not drawn) [gly-2]	-7	-14	-18	-14	-14	-5	-12	1	-2	-33	-6	8	-6	-8	-2	-19	0	-1	-8	-6	Percent Inhibition (M059J): -1%; Percent Inhibition (MSTO-211-H): 7%; Percent Inhibition (NCI-H1623): 6%; Percent Inhibition (NCI-H1694): -10%; Percent Inhibition (NCI-H1770): -4%; Percent Inhibition (NCI-H2347): -2%; Percent Inhibition (NCI-H2405): -2%; Percent Inhibition (NCI-H28): -21%; Percent Inhibition (NCI-H524): -15%; Percent Inhibition (Panc 03.27): 2%; Percent Inhibition (RL95): 2%; Percent Inhibition (SW13): -14%; Percent Inhibition (T47D): -2%; Percent Inhibition (T98G): -3%; Percent Inhibition (TCCSUP): -4%; Percent Inhibition (ZR-75-30): 15%
